Test system: miR-142^−/−BCR-ABL LSKs
Method: LSKs from diseased miR-142 null and miR-142 wt BCR-ABL mice were treated with CpG-M-miR-142 (2 μM) or SCR±NIL (2 μM) for 72 h.

`Cc1cn(-c2cc(NC(=O)c3ccc(C)c(Nc4nccc(-c5cccnc5)n4)c3)cc(C(F)(F)F)c2)cn1` [NIL, nilotinib] was tested, and the apoptosis was “lower apoptosis” and the cell growth was “higher cell growth”.

— patent US20250195666A1, “MIR-142 COMPOUNDS AND USES THEREOF” (City of Hope, priority 2021, published 2025)
